According to PubChem BioAssay (NCI):
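Method: 48-hour compound exposure of cells in 96-well plates, five concentrations, linear interpolation of endpoints. GI50: concentration for 50% inhibition of growth. TGI: total growth inhibition.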

Columns and labels:
Assay in all cases: NCI-60 cell line screen, 48 h
786-0 renal = system: 786-0 renal
A498 renal = system: A498 renal
A549 NSCLC = system: A549 NSCLC
ACHN renal = system: ACHN renal
BT-549 breast = system: BT-549 breast
CAKI-1 renal = system: CAKI-1 renal
CCRF-CEM leukemia = system: CCRF-CEM leukemia
COLO 205 colon = system: COLO 205 colon
DU-145 prostate = system: DU-145 prostate
HCC-2998 colon = system: HCC-2998 colon
HCT-116 colon = system: HCT-116 colon
HCT-15 colon = system: HCT-15 colon
HL-60(TB) leukemia = system: HL-60(TB) leukemia
HOP-62 NSCLC = system: HOP-62 NSCLC
HS 578T breast = system: HS 578T breast
HT29 colon = system: HT29 colon
IGROV1 ovarian = system: IGROV1 ovarian
K-562 leukemia = system: K-562 leukemia
KM12 colon = system: KM12 colon
M14 melanoma = system: M14 melanoma
MALME-3M melanoma = system: MALME-3M melanoma
MCF7 breast = system: MCF7 breast
MDA-MB-231 breast = system: MDA-MB-231 breast
MDA-MB-435 = system: MDA-MB-435
MOLT-4 leukemia = system: MOLT-4 leukemia
NCI-H226 lung = system: NCI-H226 lung
NCI-H23 lung = system: NCI-H23 lung
NCI-H460 lung = system: NCI-H460 lung
NCI-H522 lung = system: NCI-H522 lung
NCI/ADR-RES ovarian = system: NCI/ADR-RES ovarian
OVCAR-3 ovarian = system: OVCAR-3 ovarian
OVCAR-4 ovarian = system: OVCAR-4 ovarian
OVCAR-5 ovarian = system: OVCAR-5 ovarian
OVCAR-8 ovarian = system: OVCAR-8 ovarian
PC-3 prostate = system: PC-3 prostate
RPMI-8226 leukemia = system: RPMI-8226 leukemia
RXF 393 renal = system: RXF 393 renal
SF-268 CNS = system: SF-268 CNS
SF-295 CNS = system: SF-295 CNS
SF-539 CNS = system: SF-539 CNS
SK-MEL-28 melanoma = system: SK-MEL-28 melanoma
SK-MEL-5 melanoma = system: SK-MEL-5 melanoma
SK-OV-3 ovarian = system: SK-OV-3 ovarian
SN12C renal = system: SN12C renal
SNB-19 CNS = system: SNB-19 CNS
SNB-75 CNS = system: SNB-75 CNS
SR leukemia = system: SR leukemia
SW-620 colon = system: SW-620 colon
T-47D breast = system: T-47D breast
TK-10 renal = system: TK-10 renal
U251 CNS = system: U251 CNS
UACC-257 melanoma = system: UACC-257 melanoma
UACC-62 melanoma = system: UACC-62 melanoma
UO-31 renal = system: UO-31 renal

COc1ccc(CCc2nc3cc(-c4c(C)noc4C)ccc3n2CCN2CCOCC2)cc1
GI50 (786-0 renal): 24.4 µM | TGI (786-0 renal): > 100 µM | GI50 (A498 renal): 10.1 µM | TGI (A498 renal): 32.8 µM | GI50 (A549 NSCLC): 45 µM | TGI (A549 NSCLC): > 100 µM | GI50 (ACHN renal): 25.9 µM | TGI (ACHN renal): > 100 µM | GI50 (BT-549 breast): 40.5 µM | TGI (BT-549 breast): > 100 µM | GI50 (CAKI-1 renal): 7.94 µM | TGI (CAKI-1 renal): > 100 µM | GI50 (CCRF-CEM leukemia): 26.9 µM | TGI (CCRF-CEM leukemia): > 100 µM | GI50 (COLO 205 colon): 12.7 µM | TGI (COLO 205 colon): > 100 µM | GI50 (DU-145 prostate): 86.2 µM | TGI (DU-145 prostate): > 100 µM | GI50 (HCC-2998 colon): 19.9 µM | TGI (HCC-2998 colon): 97.5 µM | GI50 (HCT-116 colon): 29.4 µM | TGI (HCT-116 colon): > 100 µM | GI50 (HCT-15 colon): 12.5 µM | TGI (HCT-15 colon): > 100 µM | GI50 (HL-60(TB) leukemia): 10.4 µM | TGI (HL-60(TB) leukemia): > 100 µM | GI50 (HOP-62 NSCLC): 44.6 µM | TGI (HOP-62 NSCLC): > 100 µM | GI50 (HS 578T breast): 9.16 µM | TGI (HS 578T breast): > 100 µM | GI50 (HT29 colon): 13.7 µM | TGI (HT29 colon): > 100 µM | GI50 (IGROV1 ovarian): 22.9 µM | TGI (IGROV1 ovarian): > 100 µM | GI50 (K-562 leukemia): 19.9 µM | TGI (K-562 leukemia): > 100 µM | GI50 (KM12 colon): 17.5 µM | TGI (KM12 colon): > 100 µM | GI50 (M14 melanoma): 21.6 µM | TGI (M14 melanoma): > 100 µM | GI50 (MALME-3M melanoma): 6.64 µM | TGI (MALME-3M melanoma): > 100 µM | GI50 (MCF7 breast): 4.32 µM | TGI (MCF7 breast): > 100 µM | GI50 (MDA-MB-231 breast): 28.6 µM | TGI (MDA-MB-231 breast): > 100 µM | GI50 (MDA-MB-435): 14.9 µM | TGI (MDA-MB-435): > 100 µM | GI50 (MOLT-4 leukemia): 34.5 µM | TGI (MOLT-4 leukemia): > 100 µM | GI50 (NCI-H226 lung): 31.1 µM | TGI (NCI-H226 lung): > 100 µM | GI50 (NCI-H23 lung): 45.3 µM | TGI (NCI-H23 lung): > 100 µM | GI50 (NCI-H460 lung): 65.1 µM | TGI (NCI-H460 lung): > 100 µM | GI50 (NCI-H522 lung): 12.4 µM | TGI (NCI-H522 lung): 69.4 µM | GI50 (NCI/ADR-RES ovarian): 27.9 µM | TGI (NCI/ADR-RES ovarian): > 100 µM | GI50 (OVCAR-3 ovarian): 20.3 µM | TGI (OVCAR-3 ovarian): 59.8 µM | GI50 (OVCAR-4 ovarian): 5.28 µM | TGI (OVCAR-4 ovarian): > 100 µM | GI50 (OVCAR-5 ovarian): 71.8 µM | TGI (OVCAR-5 ovarian): > 100 µM | GI50 (OVCAR-8 ovarian): 35.9 µM | TGI (OVCAR-8 ovarian): > 100 µM | GI50 (PC-3 prostate): 16.3 µM | TGI (PC-3 prostate): > 100 µM | GI50 (RPMI-8226 leukemia): 6.12 µM | TGI (RPMI-8226 leukemia): 49.4 µM | GI50 (RXF 393 renal): 18.7 µM | TGI (RXF 393 renal): 82.4 µM | GI50 (SF-268 CNS): 41.6 µM | TGI (SF-268 CNS): > 100 µM | GI50 (SF-295 CNS): 23 µM | TGI (SF-295 CNS): > 100 µM | GI50 (SF-539 CNS): 34.6 µM | TGI (SF-539 CNS): > 100 µM | GI50 (SK-MEL-28 melanoma): 39.5 µM | TGI (SK-MEL-28 melanoma): > 100 µM | GI50 (SK-MEL-5 melanoma): 13.4 µM | TGI (SK-MEL-5 melanoma): 43.8 µM | GI50 (SK-OV-3 ovarian): 26 µM | TGI (SK-OV-3 ovarian): > 100 µM | GI50 (SN12C renal): 34.9 µM | TGI (SN12C renal): > 100 µM | GI50 (SNB-19 CNS): 35.5 µM | TGI (SNB-19 CNS): > 100 µM | GI50 (SNB-75 CNS): 2.47 µM | TGI (SNB-75 CNS): > 100 µM | GI50 (SR leukemia): 7.01 µM | TGI (SR leukemia): > 100 µM | GI50 (SW-620 colon): 58.1 µM | TGI (SW-620 colon): > 100 µM | GI50 (T-47D breast): 16.1 µM | TGI (T-47D breast): > 100 µM | GI50 (TK-10 renal): 10.1 µM | TGI (TK-10 renal): > 100 µM | GI50 (U251 CNS): 38.7 µM | TGI (U251 CNS): > 100 µM | GI50 (UACC-257 melanoma): 13.6 µM | TGI (UACC-257 melanoma): > 100 µM | GI50 (UACC-62 melanoma): 11.1 µM | TGI (UACC-62 melanoma): > 100 µM | GI50 (UO-31 renal): 2.49 µM | TGI (UO-31 renal): > 100 µM
